Assay results reported in patent US8124598B2 (priority 2006, dated 2012).

Assays:
[1] = system: trauma victims; experiment: Trauma victims after a terrorist attack, 7-keto DHEA vs placebo (Example 4); format: in vivo, human; conditions: 50 or 75 mg/day by mouth for 2 to 6 weeks immediately following the incident
[2] = system: male and female patients with PTSD, panic disorder, anxiety, depression; experiment: Sixteen case reports: oral 7-keto DHEA in PTSD, panic disorder, anxiety, depression and other conditions (Example 2); format: in vivo, human
Experimental: In all the patient reports that follow, 7-keto DHEA was administered orally.

[3] = system: women with severe chronic PTSD; experiment: Five case reports: 7-keto DHEA in women with treatment-resistant PTSD (Example 1); format: in vivo, human
Text: The following case reports are of 5 women with severe chronic PTSD resulting from severe early abuse who continued to be highly symptomatic despite receiving extensive psychotherapy and years of psychopharmacologic treatment. […] The improvements in these symptoms not only were subjective and objective, but also manifested in significant and rapid benefits in vocational and interpersonal functioning.
Ms. […] A. was so fearful and avoidant they would miss many sessions. They were so fragile and frightened they would frequently dissociate during sessions and forget what had been discussed. […] After the first week of 7-keto DHEA therapy, Ms. […] They reported feeling “more organized, more present” and being able to enjoy socializing “with a significant lessening of constant fear and self-criticism.”
The outcome of this case series offers evidence that 7-keto DHEA is beneficial in treating patients with histories of severe early trauma and persistent refractory PTSD.

[4] = system: trauma victims with PTSD or depression; experiment: Trauma victims with PTSD or depression, 7-keto DHEA vs placebo (Example 5); format: in vivo, human; conditions: 75 mg/day by mouth for 1 to 6 months
[5] = system: midlife major and minor depression or dysthymia; conditions: case reports; cited from earlier work
[6] = system: trauma victims; experiment: Trauma victims with or without PTSD or depression, stress-related physiologic measures (Example 6); format: in vivo, human; conditions: 25-75 mg/day by mouth for 1 to 6 months
[7] = system: patients with treatment-resistant PTSD, panic disorder, anxiety, depression and other conditions; experiment: Eight case reports: 7-keto DHEA in treatment-resistant patients (Example 3); format: in vivo, human
[8] = system: healthy male volunteers; conditions: cited from earlier work

**Q.** Which “PTSD, depression and stress-related emotional conditions compared to placebo” value [1] does the source give for `CC(=O)OC1CC[C@@]2(C)C(=CC(=O)[C@@H]3[C@@H]2CC[C@]2(C)C(=O)CC[C@@H]32)C1` (some centres unmarked) [7-keto DHEA, 3-acetyl-7-oxo-dehydroepiandrosterone] here?
**A.** The value was “reduction in PTSD, depression and stress-related emotional conditions”.

**Q.** And the clinical response ([2]; Patient 1, PTSD and Generalized Anxiety Disorder, 25 mg/day oral)?
**A.** Its clinical response is “less anxiety within 2 days”.

**Q.** What about the clinical response ([2]; Patient 2, PTSD, chronic anxiety, Major depression, 50 mg/day oral) of the same compound?
**A.** The clinical response was “less anxiety and depression”.

**Q.** What about the clinical response ([2]; Patient 3, Panic Disorder and Generalized Anxiety Disorder, 25 mg/day oral) of the same compound?
**A.** Its clinical response is “less anxiety and panic”.

**Q.** And the clinical response ([2]; Patient 4, PTSD, Generalized Anxiety Disorder, Bipolar Depression, 25 mg/day oral)?
**A.** Its clinical response is “less anxious and depressed”.

**Q.** And the clinical response ([2]; Patient 5, Bipolar Depression and PTSD, 25 mg/day oral)?
**A.** Its clinical response is “less anxious and depressed”.

**Q.** What about the clinical response ([2]; Patient 6, Tourette's Syndrome, chronic dysthymia, anxiety, 50 mg/day oral) of the same compound?
**A.** Its clinical response is “calmer and in a better mood”.

**Q.** And the clinical response ([2]; Patient 7, Ankylosing Spondylitis, chronic pain, depression, 25 mg/day oral)?
**A.** Its clinical response is “calmer and less depressed”.

**Q.** What about the clinical response ([2]; Patient 8, Dissociative Disorder, PTSD, Major Depression, Dependent Personality Disorder, 25 mg/day oral) of the same compound?
**A.** Its clinical response is “less anxiety and dissociation”.

**Q.** What about the clinical response ([2]; Patient 9, PTSD, Generalized Anxiety Disorder, Major Depression, 25 to 50 mg/day oral) of the same compound?
**A.** Its clinical response is “less anxious and depressed”.

**Q.** And the clinical response ([2]; Patient 10, Bipolar Depression and PTSD, 25 mg/day oral)?
**A.** The clinical response was “less anxious and depressed”.

**Q.** What about the clinical response ([2]; Patient 11, Bipolar Depression and PTSD, 25 mg/day oral) of the same compound?
**A.** The clinical response was “less anxious”.

**Q.** And the clinical response ([2]; Patient 12, Bipolar Depression and PTSD, 25 mg/day oral)?
**A.** The clinical response was “less anxious”.

**Q.** And the clinical response ([2]; Patient 13, PTSD and Major Depression, 50 mg/day oral)?
**A.** Its clinical response is “less depressed and anxious”.

**Q.** What about the clinical response ([2]; Patient 14, Adult ADHD, Bereavement, PTSD, 25 mg/day oral) of the same compound?
**A.** Its clinical response is “less irritable and anxious”.

**Q.** And the clinical response ([2]; Patient 15, Generalized Anxiety Disorder, 25 mg/day oral)?
**A.** Its clinical response is “lower anxiety and better mood”.

**Q.** And the clinical response ([2]; Patient 16, Generalized Anxiety Disorder and Fibromyalgia, 25 mg/day oral)?
**A.** The clinical response was “lower anxiety and irritability”.

**Q.** And the clinical response ([3]; Case 1 (PTSD, bipolar II, dissociative identity disorder), 25 mg/day, after the first week, adjunct)?
**A.** The clinical response was “stopped feeling so fearful, stopped dissociating, was much more communicative, and related better”.

**Q.** And the libido ([3]; Case 1, 50 mg/day)?
**A.** Its libido is “went from having no libido to some libido”.

**Q.** What about the clinical response ([3]; Case 1, after 3 weeks on 50 mg/day) of the same compound?
**A.** Its clinical response is “stopped having nightmares, had much better concentration, functioned better at work and in social situations, had more stable mood”.

**Q.** And the clinical response ([3]; Case 1, dosage increased to 50 mg daily)?
**A.** The clinical response was “even further improvement”.

**Q.** And the clinical response ([3]; Case 2 (PTSD, bipolar disorder NOS), 25 mg daily, within a few days, adjunct)?
**A.** The clinical response was “feeling much better”.

**Q.** What about the vocational functioning ([3]; Case 2, 25 mg daily, within 2 weeks) of the same compound?
**A.** The vocational functioning was “felt calm and centered enough to return to work”.

**Q.** What about the clinical response ([3]; Case 3 (PTSD, major depressive disorder), 25 mg daily, after 4 days, adjunct) of the same compound?
**A.** The clinical response was “felt better and was no longer getting anxious and overwhelmed by stressful events”.

**Q.** And the nightmares and flashbacks ([3]; Case 3, 25 mg daily, seven days after start)?
**A.** Its nightmares and flashbacks is “fewer nightmares and flashbacks”.

**Q.** And the clinical response ([3]; Case 4 (PTSD with dissociative identity disorder), 50 mg for 6 weeks, adjunct)?
**A.** The clinical response was “some improvement in daily functioning and more positive affect”.

**Q.** What about the clinical response ([3]; Case 4, 100 mg for 6 weeks) of the same compound?
**A.** Its clinical response is “became much more social”.

**Q.** And the clinical response ([3]; Case 4, 150 mg daily)?
**A.** Its clinical response is “continued to improve”.

**Q.** What about the clinical response ([3]; Case 5 (anxiety, PTSD, dissociative identity disorder, panic attacks), 25 mg daily raised to 50 and 75 mg daily, single agent) of the same compound?
**A.** Its clinical response is “feeling calmer and being better able to deal with the stress”.

**Q.** What about the “reduction in trauma and affective symptoms” value ([3]; all 5 treatment-resistant women, after starting 7-keto DHEA) of the same compound?
**A.** The value was “rapid and substantial reduction in their trauma and affective symptoms”.

**Q.** And the negative side effects ([3]; the 5 patients on 7-keto DHEA)?
**A.** The negative side effects was “None of the 5 patients on 7-keto DHEA treatment reported any negative side effects”.

**Q.** And the “PTSD, depression and stress-related emotional conditions compared to placebo” value [4]?
**A.** Its value is “reduction in their PTSD depression and stress-related emotional conditions”.

**Q.** What about the induced mania [5] of the same compound?
**A.** The induced mania was “no case reports of induced mania”.

**Q.** What about the “stress-related physiologic measures (pain, headaches, hypertension, alcohol and substance abuse, work days lost to illness, cardiac events) compared to placebo” value ([6]; patients with PTSD or depression) of the same compound?
**A.** The value was “reduction in one or more stress-related physiologic measures”.

**Q.** And the “stress-related physiologic measures (pain, headaches, hypertension, alcohol and substance abuse, work days lost to illness, cardiac events) compared to placebo” value ([6]; patients without PTSD or depression)?
**A.** Its value is “reduction in one or more stress-related physiologic measures”.

**Q.** And the “time the patient remained well” value ([7]; Example 3 patient 7, 200 mg/day)?
**A.** The value was 9 months.

**Q.** And the “time the patient remained well” value ([7]; Example 3 patients 3 and 6 on 7-keto DHEA (50; 100 mg/day))?
**A.** The value was “about 1 year”.

**Q.** And the clinical response ([7]; Patient 1, lifelong depression, PMDD, sexual PTSD, 75 mg/day)?
**A.** Its clinical response is “improved”.

**Q.** What about the clinical response ([7]; Patient 2, lifelong anxiety, 4 years of depression, 50 mg/day) of the same compound?
**A.** The clinical response was “very effective”.

**Q.** And the clinical response ([7]; Patient 3, GAD, panic disorder, fibromyalgia/CFS, 50 mg/day)?
**A.** The clinical response was “improvement in their symptoms”.

**Q.** And the clinical response ([7]; Patient 4, severe dissociative identity disorder, fibromyalgia, Bipolar Disorder, 200 mg/day)?
**A.** Its clinical response is “has been well for a year and is able to read and function”.

**Q.** And the clinical response ([7]; Patient 5, PTSD and bipolar 2 disorder, 50 mg/day in summer, 100 mg/day in winter)?
**A.** Its clinical response is “very effective”.

**Q.** And the clinical response ([7]; Patient 6, failed most antidepressants, atypical antipsychotics and ECT, 100 mg/day)?
**A.** Its clinical response is “tremendous positive effects in 1 week”.

**Q.** What about the “clinical response after partial relapse” value ([7]; Patient 6, dosage increased from 100 mg/day to 300 mg/day after stressful episode (breast cancer)) of the same compound?
**A.** The value was “good results”.

**Q.** What about the clinical response ([7]; Patient 7, lifelong depression, sexual PTSD, fibromyalgia/CFS, 200 mg/day) of the same compound?
**A.** Its clinical response is “significant benefit”.

**Q.** And the “differences in clinical laboratory values, minor adverse experiences, vital signs, blood chemistry, urinalysis between treatment and placebo groups” value ([8]; healthy male volunteers)?
**A.** Its value is “no differences”.

**Q.** And the “side effects or changes in clinical laboratory values” ([8]; study by Davidson et al.)?
**A.** The value was “no side effects or changes in clinical laboratory values”.
